Reference: ChEMBL document CHEMBL1201862, “PubChem BioAssay data set” (2004)
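Results reflect a 48-hour exposure of cells in 96-well plates to compound at five concentrations. GI50: concentration for 50% inhibition of growth.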 Calls of active or inactive are those of the source. Cut-off read from the data, not from the text of the source: active = GI50 up to about 1.1 µM and inactive = higher.

How the values were obtained:
Assay in all cases: DTP human tumour cell line panel, 48 h
A549 = tested on: A549
ACHN = tested on: ACHN
COLO 205 = tested on: COLO 205
DLD-1 = tested on: DLD-1
HCC 2998 = tested on: HCC 2998
HCT-116 = tested on: HCT-116
K562 = tested on: K562
LXFL 529 = tested on: LXFL 529
M19-MEL = tested on: M19-MEL
NCI-H522 = tested on: NCI-H522
OVCAR-3 = tested on: OVCAR-3
SF-268 = tested on: SF-268
SNB-78 = tested on: SNB-78
SW-620 = tested on: SW-620
UACC-257 = tested on: UACC-257
SNB-19 = tested on: SNB-19
SK-MEL-5 = tested on: SK-MEL-5
DU-145 = tested on: DU-145
MDA-MB-231 = tested on: MDA-MB-231
PC-3 = tested on: PC-3

Measured: GI50

Fc1ccc2c(c1)SC1Oc3ccccc3-c3c1c-2nn3-c1ccccc1 (stereo not given)
inactive: A549 > 100 µM | ACHN > 100 µM | COLO 205 > 100 µM | DLD-1 > 100 µM | HCC 2998 > 100 µM | HCT-116 66.8 µM | K562 > 100 µM | LXFL 529 > 100 µM | M19-MEL > 100 µM | NCI-H522 37.9 µM | OVCAR-3 > 100 µM | SF-268 > 100 µM | SNB-78 > 100 µM | SW-620 > 100 µM | UACC-257 > 100 µM

O=C(CC1(O)C(=O)Nc2ccc(Br)cc21)c1ccc(Cl)cc1Cl (stereo not given)
inactive: A549 92 µM | ACHN 60.1 µM | COLO 205 65.5 µM | DLD-1 47.1 µM | HCC 2998 91.8 µM | HCT-116 31.8 µM | K562 39.6 µM | LXFL 529 32.4 µM | M19-MEL 14.9 µM | NCI-H522 25.1 µM | OVCAR-3 34.9 µM | SF-268 50.1 µM | SNB-19 > 100 µM | SNB-78 37.8 µM | SW-620 37.1 µM | UACC-257 30.9 µM

CC(=O)CC(=O)ON(C)C(C)=O
inactive: A549 > 100 µM | ACHN > 100 µM | COLO 205 > 100 µM | DLD-1 > 100 µM | HCC 2998 > 100 µM | HCT-116 > 100 µM | K562 > 100 µM | LXFL 529 > 100 µM | M19-MEL > 100 µM | NCI-H522 > 100 µM | OVCAR-3 > 100 µM | SF-268 > 100 µM | SK-MEL-5 > 100 µM | SNB-19 > 100 µM | SNB-78 > 100 µM | SW-620 > 100 µM | UACC-257 7.69 µM

O=C(CC(=O)C1CCOC1=O)C(=O)Nc1ccc(Cl)cc1 (stereo not given)
inactive: A549 > 100 µM | ACHN > 100 µM | COLO 205 > 100 µM | DLD-1 > 100 µM | HCC 2998 > 100 µM | HCT-116 > 100 µM | K562 > 100 µM | LXFL 529 > 100 µM | M19-MEL > 100 µM | NCI-H522 > 100 µM | OVCAR-3 > 100 µM | SF-268 > 100 µM | SK-MEL-5 > 100 µM | SNB-19 > 100 µM | SNB-78 > 100 µM | SW-620 > 100 µM | UACC-257 > 100 µM

CN(C)CC/[N+]([O-])=C(/c1ccccc1)C12CC3CC(CC(C3)C1)C2
inactive: A549 18.4 µM | ACHN 16.3 µM | COLO 205 14 µM | DLD-1 16.1 µM | HCC 2998 22.2 µM | HCT-116 17.9 µM | K562 15.1 µM | LXFL 529 24 µM | M19-MEL 13.8 µM | NCI-H522 15.1 µM | OVCAR-3 14.7 µM | SF-268 20.9 µM | SK-MEL-5 17.5 µM | SNB-19 18.2 µM | SNB-78 19 µM | UACC-257 15.9 µM

COc1ccc2c(c1)CC[C@@H]1C2CC[C@]2(C)C(=N\O)/C(=N/O)CC12 (stereo not given in full)
inactive: A549 10.1 µM | ACHN 15.7 µM | COLO 205 14.3 µM | DLD-1 13.1 µM | HCC 2998 22.3 µM | HCT-116 16 µM | K562 8.32 µM | LXFL 529 12.8 µM | M19-MEL 17.2 µM | NCI-H522 2.93 µM | OVCAR-3 12.4 µM | SF-268 17.9 µM | SK-MEL-5 12.7 µM | SNB-19 16.6 µM | SNB-78 17 µM | SW-620 17.6 µM | UACC-257 16.7 µM

Clc1ccccc1C1=NN(c2ccccc2)C2c3cc(Br)ccc3OCC12 (stereo not given)
inactive: A549 > 100 µM | ACHN > 100 µM | COLO 205 > 100 µM | DLD-1 > 100 µM | HCC 2998 > 100 µM | HCT-116 > 100 µM | K562 > 100 µM | LXFL 529 > 100 µM | M19-MEL > 100 µM | NCI-H522 > 100 µM | OVCAR-3 > 100 µM | SF-268 > 100 µM | SNB-19 > 100 µM | SNB-78 > 100 µM | SW-620 > 100 µM | UACC-257 > 100 µM

CN(/C(=N\O)c1ccccc1)c1ccccc1
inactive: A549 47 µM | COLO 205 95.9 µM | DLD-1 29.4 µM | HCC 2998 25.9 µM | HCT-116 46.7 µM | LXFL 529 34.8 µM | M19-MEL 78.2 µM | NCI-H522 18 µM | OVCAR-3 21.7 µM | SF-268 28.1 µM | SNB-19 27.9 µM | SNB-78 28.4 µM | SW-620 32.2 µM | UACC-257 38.6 µM

Nc1ccc(C(=O)/C=C/c2ccccc2O)cc1
inactive: A549 > 100 µM | ACHN > 100 µM | COLO 205 > 100 µM | DLD-1 > 100 µM | HCC 2998 > 100 µM | HCT-116 > 100 µM | K562 > 100 µM | LXFL 529 > 100 µM | M19-MEL > 100 µM | NCI-H522 > 100 µM | OVCAR-3 > 100 µM | SF-268 > 100 µM | SK-MEL-5 > 100 µM | SNB-19 > 100 µM | SNB-78 > 100 µM | SW-620 > 100 µM | UACC-257 > 100 µM

Cc1[nH]c2ccccc2c1C1Cc2ccccc2N1C(=O)/C=C/C=C/c1ccccc1 (stereo not given)
inactive: A549 > 100 µM | ACHN > 100 µM | COLO 205 > 100 µM | DLD-1 > 100 µM | HCC 2998 > 100 µM | HCT-116 > 100 µM | K562 > 100 µM | LXFL 529 > 100 µM | M19-MEL > 100 µM | NCI-H522 > 100 µM | OVCAR-3 13.1 µM | SK-MEL-5 > 100 µM | SNB-19 > 100 µM | SNB-78 > 100 µM | SW-620 > 100 µM | UACC-257 33 µM

COc1ccccc1C(=O)N(Cc1ccccc1)c1ccc(Cl)c(C(=O)OC(C)C)c1
inactive: A549 19.4 µM | ACHN 25 µM | COLO 205 20.9 µM | DLD-1 18.1 µM | DU-145 32.4 µM | HCC 2998 18.2 µM | HCT-116 13.7 µM | K562 6.89 µM | LXFL 529 23 µM | M19-MEL 25.8 µM | MDA-MB-231 25.9 µM | NCI-H522 5.93 µM | OVCAR-3 17.7 µM | PC-3 7.53 µM | SF-268 42.3 µM | SK-MEL-5 11.7 µM | SNB-19 24.3 µM | SNB-78 19.1 µM | SW-620 31.8 µM | UACC-257 14.6 µM

Cn1c(=O)c(C(=O)NC23CC4CC(CC(C4)C2)C3)c(O)c2ccccc21
inactive: A549 28.8 µM | ACHN 19.9 µM | COLO 205 46.1 µM | DLD-1 50.7 µM | HCC 2998 > 10 µM | HCT-116 23.5 µM | K562 > 100 µM | LXFL 529 59.4 µM | M19-MEL 49.8 µM | NCI-H522 > 100 µM | OVCAR-3 23.4 µM | SF-268 74.5 µM | SNB-19 21.2 µM | SNB-78 43.3 µM | SW-620 56.1 µM | UACC-257 28.8 µM

Cc1cc(N(CCC#N)CCC#N)ccc1/C=C(\NC(=O)/C=C/c1ccccc1)C(=O)N=[N+]=[N-]
inactive: A549 > 100 µM | ACHN > 100 µM | COLO 205 > 100 µM | DLD-1 > 100 µM | HCC 2998 > 100 µM | HCT-116 > 100 µM | K562 > 100 µM | LXFL 529 > 100 µM | M19-MEL > 100 µM | NCI-H522 30.4 µM | OVCAR-3 7.01 µM | SF-268 99.1 µM | SK-MEL-5 > 100 µM | SNB-19 77.8 µM | SNB-78 44.4 µM | SW-620 > 100 µM | UACC-257 > 100 µM

O=C1OC(O)C(Oc2ccc(Cl)cc2)=C1Cl (stereo not given)
inactive: A549 > 100 µM | ACHN > 100 µM | COLO 205 > 100 µM | DLD-1 > 100 µM | HCC 2998 > 100 µM | HCT-116 > 100 µM | K562 > 100 µM | LXFL 529 > 100 µM | M19-MEL > 100 µM | NCI-H522 > 100 µM | OVCAR-3 > 100 µM | SF-268 > 100 µM | SNB-19 > 100 µM | SNB-78 > 100 µM | SW-620 > 100 µM | UACC-257 > 100 µM

CCOC(=O)c1cn2c([nH]c3ccccc32)c(C#N)c1=O
inactive: A549 > 100 µM | ACHN > 100 µM | COLO 205 41.6 µM | DLD-1 99.5 µM | HCC 2998 > 100 µM | HCT-116 80.4 µM | K562 > 100 µM | LXFL 529 > 100 µM | M19-MEL > 100 µM | NCI-H522 > 100 µM | OVCAR-3 > 100 µM | SF-268 > 100 µM | SK-MEL-5 > 100 µM | SNB-19 > 100 µM | SNB-78 > 100 µM | SW-620 17.1 µM | UACC-257 > 100 µM

[O-][n+]1c(-c2ccccc2)c2nc3ccccc3nc2c2ccccc21
inactive: A549 > 100 µM | ACHN > 100 µM | COLO 205 > 100 µM | DLD-1 > 100 µM | HCC 2998 > 100 µM | HCT-116 > 100 µM | K562 > 100 µM | LXFL 529 7.78 µM | M19-MEL > 100 µM | NCI-H522 > 100 µM | OVCAR-3 > 100 µM | SF-268 > 100 µM | SK-MEL-5 > 100 µM | SNB-19 > 100 µM | SNB-78 27.5 µM | SW-620 > 100 µM | UACC-257 > 100 µM

O=C1c2cccc(O)c2C(=O)c2c(O)cccc21 [DANTHRON]
inactive: A549 56.1 µM | ACHN > 100 µM | COLO 205 22 µM | DLD-1 45 µM | HCC 2998 88.7 µM | HCT-116 49 µM | K562 92.9 µM | LXFL 529 > 100 µM | M19-MEL 3.66 µM | NCI-H522 62.7 µM | OVCAR-3 28.3 µM | SF-268 > 100 µM | SNB-19 > 100 µM | SNB-78 > 100 µM | SW-620 64.1 µM | UACC-257 85.1 µM
